The subject of one data set is Leishmania. In words: Cure time of skin/mucosal ulcer and impaired organ function caused by Leishmania. As to conditions: in vivo.
The next data set concerns Leishmaniabraziliensis. In words: Skin ulceration of Leishmania-infected hamsters. It is filed as in vivo, hamsters (Mesocricetus auratus). As to conditions: 200 μg/mL subcutaneous injection at ulcer site 100 μL/mouse/d. The method, then: 2) Research on the treatment with micro- and nano-MgH2 compound particles: • 2.1 MgH2 compound particles with a particle diameter of 100 nm to 1,000 nm were first dissolved in a phosphoric acid buffer to prepare 5 concentration groups (1 mg/100 uL, 3 mg/100 uL, 5 mg/100 uL, 10 mg/100 uL, and 15 mg/100 uL). • 2.2 A Leishmaniabraziliensis-infected mouse model was established, which was specified as follows:
Various hamsters (Mesocricetus auratus) were selected, the lower dorsal margin was shaved, and Leishmania (1 million/100 uL/mouse) was injected subcutaneously at 2 cm of an upper margin of a tail. […] MgH2 compound particles (with a particle size of 100 nm to 1,000 nm) at different concentrations (100 uL) were smeared to a skin lesion of an infected hamster once every 24 h continuously for 14 d. An untreated group (namely, a blank control group, infected mice were not treated) and an antimony preparation subcutaneous injection group (sodium antimony gluconate (5-valent antimony preparation, 200 μg/mL) was injected subcutaneously at an ulcer site 100 μL/mouse/d) were set.

For data set [1] the following is noted: existing studies; cited from earlier work.

Take “sodium antimony gluconate [Antimony preparation]”: in the data set on Leishmania, the cure time is recorded as 1 to 3 months. The “Healing rate of a skin ulceration wound” value in the data set on Leishmaniabraziliensis (day 0) is listed as 0%; with Leishmaniabraziliensis (day 3) it was 15.3 ± 2.0%; in the data set with Leishmaniabraziliensis (day 7), 75.2 ± 4.8%; in the data set with Leishmaniabraziliensis (day 14), 88.9 ± 5.1%. Also, the side effects result in data set [1] is “serious liver and kidney function damage”.

These data come from US12691141B2, “Use of micro- and nano-MgH2 compound particles in inhibition of leishmania infection and treatment of leishmaniasis” (SHANGHAI JIAO TONG UNIVERSITY, priority 2020, dated 2026).
